Test results published in the supplement of paper PMC10307832.

How the values were obtained:
Assay in all cases: relative viability (nuclei count vs DMSO), 5 days (fraction); higher = more cells survive
[1] = test system: NCI-H1623
How it was run: (§1)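 After 5 days of treatment, lung cancer cells in 1536-well plates were fixed and stained in a single step (final 0.05% Triton X-100, 1% formaldehyde, 1 ug/ml Hoechst) and their nuclei counted on 4× images. Treatment had been applied by pin tool the day after seeding as one drug alone or as a fixed anchor-drug dose with five library-drug doses (not always all listed) in √10 steps. Relative viability is the nuclei count of treated wells divided by that of vehicle wells, and values are medians of duplicate plates.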

[2] = test system: NCI-H1648
How it was run: as §1

[3] = test system: NCI-H2342
How it was run: as §1

[4] = test system: NCI-H522
How it was run: as §1

[5] = test system: SW 900
How it was run: as §1

[6] = test system: NCI-H1563
How it was run: as §1

[7] = test system: A549
How it was run: as §1

[8] = test system: Calu-6
How it was run: as §1

[9] = test system: EBC-1
How it was run: as §1

[10] = test system: IA-LM
How it was run: as §1

[11] = test system: NCI-H1299
How it was run: as §1

[12] = test system: NCI-H1703
How it was run: as §1

Structure (SMILES): O=c1[nH]c2ccccc2n1C1CCN(CCCC(c2ccc(F)cc2)c2ccc(F)cc2)CC1 [Pimozide] + Cc1cc(Nc2cc(N3CCN(C)CC3)nc(Sc3ccc(NC(=O)C4CC4)cc3)n2)n[nH]1 [Tozasertib] (partner 0.1 µM)
- relative viability ([1]; first compound 0.253 µM): 0.439
- relative viability ([1]; first compound 0.8 µM): 0.375
- relative viability ([1]; first compound 2.53 µM): 0.456
- relative viability ([1]; first compound 8 µM): 0.39
- relative viability ([2]; first compound 0.08 µM): 0.574
- relative viability ([2]; first compound 0.253 µM): 0.398
- relative viability ([2]; first compound 0.8 µM): 0.353
- relative viability ([2]; first compound 8 µM): 0.53
- relative viability ([3]; first compound 0.08 µM): 0.51
- relative viability ([3]; first compound 0.253 µM): 0.517
- relative viability ([3]; first compound 0.8 µM): 0.505
- relative viability ([3]; first compound 2.53 µM): 0.488
- relative viability ([3]; first compound 8 µM): 0.576
- relative viability ([4]; first compound 0.08 µM): 0.509
- relative viability ([4]; first compound 0.253 µM): 0.47
- relative viability ([4]; first compound 0.8 µM): 0.573
- relative viability ([4]; first compound 2.53 µM): 0.485
- relative viability ([4]; first compound 8 µM): 0.525
- relative viability ([5]; first compound 0.08 µM): 0.633
- relative viability ([5]; first compound 0.253 µM): 0.606
- relative viability ([5]; first compound 0.8 µM): 0.54
- relative viability ([5]; first compound 2.53 µM): 0.618
- relative viability ([5]; first compound 8 µM): 0.563

Structure (SMILES): O=c1[nH]c2ccccc2n1C1CCN(CCCC(c2ccc(F)cc2)c2ccc(F)cc2)CC1 [Pimozide] + COc1cccc2cc(-c3nc([C@H]4CC[C@H](C(=O)O)CC4)n4ncnc(N)c34)[nH]c12 [OSI-027] (partner 0.5 µM)
- relative viability ([6]; first compound 0.08 µM): 0.75
- relative viability ([6]; first compound 0.253 µM): 0.767
- relative viability ([6]; first compound 0.8 µM): 0.817
- relative viability ([6]; first compound 2.53 µM): 0.664
- relative viability ([6]; first compound 8 µM): 0.719
- relative viability ([1]; first compound 0.08 µM): 0.348
- relative viability ([1]; first compound 0.253 µM): 0.48
- relative viability ([1]; first compound 0.8 µM): 0.374
- relative viability ([1]; first compound 2.53 µM): 0.416
- relative viability ([1]; first compound 8 µM): 0.389
- relative viability ([2]; first compound 0.08 µM): 0.275
- relative viability ([2]; first compound 0.253 µM): 0.264
- relative viability ([2]; first compound 0.8 µM): 0.272
- relative viability ([2]; first compound 8 µM): 0.279
- relative viability ([3]; first compound 0.08 µM): 0.63
- relative viability ([3]; first compound 0.253 µM): 0.623
- relative viability ([3]; first compound 0.8 µM): 0.615
- relative viability ([3]; first compound 2.53 µM): 0.543
- relative viability ([3]; first compound 8 µM): 0.599
- relative viability ([4]; first compound 0.08 µM): 0.682
- relative viability ([4]; first compound 0.253 µM): 0.586
- relative viability ([4]; first compound 0.8 µM): 0.54
- relative viability ([4]; first compound 2.53 µM): 0.829
- relative viability ([4]; first compound 8 µM): 0.682
- relative viability ([5]; first compound 0.08 µM): 0.879
- relative viability ([5]; first compound 0.253 µM): 0.581
- relative viability ([5]; first compound 0.8 µM): 0.273
- relative viability ([5]; first compound 2.53 µM): 0.475
- relative viability ([5]; first compound 8 µM): 0.384

Structure (SMILES): O=C(O)CCCCC(CCSCc1ccccc1)SCc1ccccc1 (stereo unspecified) [CPI-613] + Cc1cc(Nc2cc(N3CCN(C)CC3)nc(Sc3ccc(NC(=O)C4CC4)cc3)n2)n[nH]1 [Tozasertib] (partner 0.1 µM)
- relative viability ([1]; first compound 5 µM): 0.442
- relative viability ([1]; first compound 15.81 µM): 0.387
- relative viability ([1]; first compound 50 µM): 0.421
- relative viability ([1]; first compound 158.11 µM): 0.417
- relative viability ([1]; first compound 500 µM): 0.426
- relative viability ([2]; first compound 5 µM): 0.473
- relative viability ([2]; first compound 15.81 µM): 0.312
- relative viability ([2]; first compound 50 µM): 0.589
- relative viability ([2]; first compound 500 µM): 0.391
- relative viability ([3]; first compound 5 µM): 0.523
- relative viability ([3]; first compound 15.81 µM): 0.527
- relative viability ([3]; first compound 50 µM): 0.511
- relative viability ([3]; first compound 158.11 µM): 0.484
- relative viability ([3]; first compound 500 µM): 0.625
- relative viability ([4]; first compound 5 µM): 0.512
- relative viability ([4]; first compound 15.81 µM): 0.563
- relative viability ([4]; first compound 50 µM): 0.573
- relative viability ([4]; first compound 158.11 µM): 0.419
- relative viability ([4]; first compound 500 µM): 0.325
- relative viability ([5]; first compound 5 µM): 0.511
- relative viability ([5]; first compound 15.81 µM): 0.557
- relative viability ([5]; first compound 50 µM): 0.473
- relative viability ([5]; first compound 158.11 µM): 0.199
- relative viability ([5]; first compound 500 µM): 0.0732

Structure (SMILES): Cc1cnc(-c2cnc(NCCNc3ccc(C#N)cn3)nc2-c2ccc(Cl)cc2Cl)[nH]1 + COc1cc2c(Oc3ccc(NC(=O)C4(C(=O)Nc5ccc(F)cc5)CC4)cc3F)ccnc2cc1OCCCN1CCOCC1 [Foretinib] (partner 0.25 µM)
- relative viability ([7]; first compound 0.08 µM): 0.984
- relative viability ([7]; first compound 0.253 µM): 0.963
- relative viability ([7]; first compound 0.8 µM): 1.02
- relative viability ([7]; first compound 2.53 µM): 0.451
- relative viability ([8]; first compound 0.08 µM): 0.906
- relative viability ([8]; first compound 0.253 µM): 0.826
- relative viability ([8]; first compound 0.8 µM): 0.874
- relative viability ([8]; first compound 2.53 µM): 0.784
- relative viability ([9]; first compound 0.08 µM): 0.0986
- relative viability ([9]; first compound 0.253 µM): 0.105
- relative viability ([9]; first compound 0.8 µM): 0.102
- relative viability ([9]; first compound 2.53 µM): 0.112
- relative viability ([10]; first compound 0.08 µM): 0.95
- relative viability ([10]; first compound 0.253 µM): 1.09
- relative viability ([10]; first compound 0.8 µM): 1.44
- relative viability ([10]; first compound 2.53 µM): 0.988
- relative viability ([11]; first compound 0.08 µM): 1.11
- relative viability ([11]; first compound 0.253 µM): 1.05
- relative viability ([11]; first compound 0.8 µM): 1.09
- relative viability ([11]; first compound 2.53 µM): 1.06
- relative viability ([6]; first compound 0.08 µM): 0.925
- relative viability ([6]; first compound 0.253 µM): 0.885
- relative viability ([6]; first compound 0.8 µM): 0.951
- relative viability ([6]; first compound 2.53 µM): 1.01
- relative viability ([1]; first compound 0.08 µM): 0.785
- relative viability ([1]; first compound 0.253 µM): 0.828
- relative viability ([1]; first compound 0.8 µM): 0.821
- relative viability ([1]; first compound 2.53 µM): 0.849
- relative viability ([12]; first compound 0.08 µM): 0.333
- relative viability ([12]; first compound 0.253 µM): 0.383
- relative viability ([12]; first compound 0.8 µM): 0.362
- relative viability ([12]; first compound 2.53 µM): 0.433
- relative viability ([3]; first compound 0.08 µM): 0.974
- relative viability ([3]; first compound 0.253 µM): 0.903
- relative viability ([3]; first compound 0.8 µM): 1.03
- relative viability ([3]; first compound 2.53 µM): 1.07
- relative viability ([5]; first compound 0.08 µM): 0.781
- relative viability ([5]; first compound 0.253 µM): 0.78
- relative viability ([5]; first compound 0.8 µM): 0.789
- relative viability ([5]; first compound 2.53 µM): 0.717
